Assay results reported in patent US20080274892A1, “Novel Haloalkylsulfonanilide Derivative, Herbicide, and Method of Use Thereof” (priority 2005, published 2008).

Assays:
bulrush [1] = assay: Test Example 1: herbicidal efficacy on rice paddy weeds pre-emergence; type: in vivo, Scirpus juncoides; conditions: dosage 1000 g/ha, 21 days
false pimpernel [2] = assay: as above; type: in vivo, Lindernia pyxidaria; conditions: dosage 1000 g/ha, 21 days
barnyard glass = assay: Test Example 2: herbicidal efficacy on rice paddy weeds post-emergence; type: in vivo, Echinochloa crus-galli; conditions: dosage 1000 g/ha; post-emergence, one leaf stage; 21 days after treatment
Procedure, shortened: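 Plastic pots of 75 cm^2 were filled with clay loam soil and sown with barnyard glass and bulrush seeds, then topped with 75 cm^3 soil containing false pimpernel seeds. The pots were flooded to 5 cm water depth and held in a hot house. Twenty-one days after treatment, herbicidal efficacy was graded against an untreated control.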

bulrush [3] = assay: as above; type: in vivo, Scirpus juncoides; conditions: dosage 1000 g/ha; post-emergence, one leaf stage; 21 days after treatment
false pimpernel [4] = assay: as above; type: in vivo, Lindernia pyxidaria; conditions: dosage 1000 g/ha; post-emergence, one leaf stage; 21 days after treatment
[5] = system: paddy rice plant (cultivar: Nihonbare); assay: Test Example 3: phytotoxicity test for transplanted paddy rice plant; type: in vivo; conditions: dosage 1000 g/ha; transplanted rice, treated 5 days after transplantation; 21 days after treatment
Procedure, shortened: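 Clay loam soil was placed in a 75 cm^2 plastic pot and flooded to a water depth of 5 cm. Two Nihonbare paddy rice plants at the two-leaf stage were transplanted 1 cm deep and grown in a hot house. After treatment, pots stayed in the hot house for 21 days, and phytotoxicity was then graded against an untreated control.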

bulrush [6] = assay: Test Example 4: low dosage test for rice paddy weeds; type: in vivo, Scirpus juncoides; conditions: 300 g/ha as an active ingredient; plants treated at the one leaf stage; 21 days after treatment; vs untreated control
Procedure, shortened: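 Bulrush sown in clay loam pots, flooded to 5 cm water in a hot house, treated at the one-leaf stage with formulated compound at 300 g/ha. Efficacy scored 0–4 against untreated control 21 days after treatment (4 = 90–100%, 0 = 0% inhibition).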

[7] = system: transplanted paddy rice plant and Bulrush; assay: Test Example 5: selectivity between transplanted paddy rice plant and weeds; type: in vivo; conditions: (highest dosage with no phytotoxicity to paddy rice)/(lowest dosage with effective level 4 on Bulrush); rice 3000-100 g/ha, Bulrush 300-10 g/ha; 21 days
Procedure, shortened: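 Transplanted paddy rice was treated at 3000, 1000, 300 and 100 g/ha active ingredient for phytotoxicity, and post-emergence bulrush at 300, 100, 30 and 10 g/ha. Plants were kept in a hothouse for 21 days. Growth inhibition versus untreated control was scored 0–4 (0%, 1–39%, 40–69%, 70–89%, 90–100%).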

SMILES	Bulrush pre (herbicidal efficacy grade) (bulrush [1])	False pimpernel pre (herbicidal efficacy grade) (false pimpernel [2])	Burnyard grass post (herbicidal efficacy grade) (barnyard glass)	Bulrush post (herbicidal efficacy grade) (bulrush [3])	False pimpernel post (herbicidal efficacy grade) (false pimpernel [4])	Phytotoxicity to paddy rice [5]	Herbicide effect to Bulrush (bulrush [6])	Selective Index [7]
CC(C)OC(=O)N(c1ccccc1CN1CC(C)(C)OC1=O)S(=O)(=O)C(F)(F)F [1-76]	4 (90%-100% of herbicidal efficacy or phytotoxicity)	4 (90%-100% of herbicidal efficacy or phytotoxicity)	4 (90%-100% of herbicidal efficacy or phytotoxicity)	4 (90%-100% of herbicidal efficacy or phytotoxicity)	4 (90%-100% of herbicidal efficacy or phytotoxicity)	2 (40%-69% of herbicidal efficacy or phytotoxicity)	4 (90%-100% of herbicidal efficacy or phytotoxicity)	30
CC(C)OCCOC(=O)N(c1ccccc1CN1CC(C)(C)OC1=O)S(=O)(=O)C(F)(F)F [1-78]	4 (90%-100% of herbicidal efficacy or phytotoxicity)	4 (90%-100% of herbicidal efficacy or phytotoxicity)	4 (90%-100% of herbicidal efficacy or phytotoxicity)	4 (90%-100% of herbicidal efficacy or phytotoxicity)	4 (90%-100% of herbicidal efficacy or phytotoxicity)	1 (1%-39% of herbicidal efficacy or phytotoxicity)	4 (90%-100% of herbicidal efficacy or phytotoxicity)	10
C#CCOC(=O)N(c1ccccc1CN1CC(C)(C)OC1=O)S(=O)(=O)C(F)(F)F [1-79]	4 (90%-100% of herbicidal efficacy or phytotoxicity)	4 (90%-100% of herbicidal efficacy or phytotoxicity)	4 (90%-100% of herbicidal efficacy or phytotoxicity)	4 (90%-100% of herbicidal efficacy or phytotoxicity)	4 (90%-100% of herbicidal efficacy or phytotoxicity)	2 (40%-69% of herbicidal efficacy or phytotoxicity)	4 (90%-100% of herbicidal efficacy or phytotoxicity)	10
CCOC(=O)N(c1ccccc1CN1CC(C)(C)OC1=O)S(=O)(=O)C(F)(F)F [1-80]	4 (90%-100% of herbicidal efficacy or phytotoxicity)	4 (90%-100% of herbicidal efficacy or phytotoxicity)	4 (90%-100% of herbicidal efficacy or phytotoxicity)	4 (90%-100% of herbicidal efficacy or phytotoxicity)	4 (90%-100% of herbicidal efficacy or phytotoxicity)	2 (40%-69% of herbicidal efficacy or phytotoxicity)	4 (90%-100% of herbicidal efficacy or phytotoxicity)	30
COCCOC(=O)N(c1ccccc1CN1CC(C)(C)OC1=O)S(=O)(=O)C(F)(F)F [1-81]	4 (90%-100% of herbicidal efficacy or phytotoxicity)	4 (90%-100% of herbicidal efficacy or phytotoxicity)	4 (90%-100% of herbicidal efficacy or phytotoxicity)	4 (90%-100% of herbicidal efficacy or phytotoxicity)	4 (90%-100% of herbicidal efficacy or phytotoxicity)	2 (40%-69% of herbicidal efficacy or phytotoxicity)	4 (90%-100% of herbicidal efficacy or phytotoxicity)	30
C=CCOC(=O)N(c1ccccc1CN1CC(C)(C)OC1=O)S(=O)(=O)C(F)(F)F [1-82]	4 (90%-100% of herbicidal efficacy or phytotoxicity)	4 (90%-100% of herbicidal efficacy or phytotoxicity)	4 (90%-100% of herbicidal efficacy or phytotoxicity)	4 (90%-100% of herbicidal efficacy or phytotoxicity)	4 (90%-100% of herbicidal efficacy or phytotoxicity)	2 (40%-69% of herbicidal efficacy or phytotoxicity)	4 (90%-100% of herbicidal efficacy or phytotoxicity)	≧30
CC1(C)CN(Cc2ccccc2N(C(=O)Oc2ccccc2)S(=O)(=O)C(F)(F)F)C(=O)O1 [1-85]	4 (90%-100% of herbicidal efficacy or phytotoxicity)	4 (90%-100% of herbicidal efficacy or phytotoxicity)	4 (90%-100% of herbicidal efficacy or phytotoxicity)	4 (90%-100% of herbicidal efficacy or phytotoxicity)	4 (90%-100% of herbicidal efficacy or phytotoxicity)	2 (40%-69% of herbicidal efficacy or phytotoxicity)	4 (90%-100% of herbicidal efficacy or phytotoxicity)	10
CC(C)COC(=O)N(c1ccccc1CN1CC2(CCC2)OC1=O)S(=O)(=O)C(F)(F)F [1-86]	4 (90%-100% of herbicidal efficacy or phytotoxicity)	4 (90%-100% of herbicidal efficacy or phytotoxicity)	4 (90%-100% of herbicidal efficacy or phytotoxicity)	4 (90%-100% of herbicidal efficacy or phytotoxicity)	4 (90%-100% of herbicidal efficacy or phytotoxicity)	1 (1%-39% of herbicidal efficacy or phytotoxicity)	4 (90%-100% of herbicidal efficacy or phytotoxicity)	10
CC(C)COC(=O)N(c1ccccc1CN1CC2(CC2)OC1=O)S(=O)(=O)C(F)(F)F [1-89]	4 (90%-100% of herbicidal efficacy or phytotoxicity)	4 (90%-100% of herbicidal efficacy or phytotoxicity)	4 (90%-100% of herbicidal efficacy or phytotoxicity)	4 (90%-100% of herbicidal efficacy or phytotoxicity)	4 (90%-100% of herbicidal efficacy or phytotoxicity)	1 (1%-39% of herbicidal efficacy or phytotoxicity)	4 (90%-100% of herbicidal efficacy or phytotoxicity)	10
CCCOC(=O)N(c1ccccc1CN1CC(C)(CC)OC1=O)S(=O)(=O)C(F)(F)F (stereo not drawn) [1-90]	4 (90%-100% of herbicidal efficacy or phytotoxicity)	4 (90%-100% of herbicidal efficacy or phytotoxicity)	4 (90%-100% of herbicidal efficacy or phytotoxicity)	4 (90%-100% of herbicidal efficacy or phytotoxicity)	4 (90%-100% of herbicidal efficacy or phytotoxicity)	3 (70%-89% of herbicidal efficacy or phytotoxicity)	4 (90%-100% of herbicidal efficacy or phytotoxicity)	30
CCCCCOC(=O)N(c1ccccc1CN1CC(C)(CC)OC1=O)S(=O)(=O)C(F)(F)F (stereo not drawn) [1-91]	4 (90%-100% of herbicidal efficacy or phytotoxicity)	4 (90%-100% of herbicidal efficacy or phytotoxicity)	4 (90%-100% of herbicidal efficacy or phytotoxicity)	4 (90%-100% of herbicidal efficacy or phytotoxicity)	4 (90%-100% of herbicidal efficacy or phytotoxicity)	3 (70%-89% of herbicidal efficacy or phytotoxicity)	4 (90%-100% of herbicidal efficacy or phytotoxicity)	30
CCCCCOC(=O)N(c1ccccc1CN1CC(C)(C)OC1=O)S(=O)(=O)C(F)(F)F [1-92]	4 (90%-100% of herbicidal efficacy or phytotoxicity)	4 (90%-100% of herbicidal efficacy or phytotoxicity)	4 (90%-100% of herbicidal efficacy or phytotoxicity)	4 (90%-100% of herbicidal efficacy or phytotoxicity)	4 (90%-100% of herbicidal efficacy or phytotoxicity)	3 (70%-89% of herbicidal efficacy or phytotoxicity)	4 (90%-100% of herbicidal efficacy or phytotoxicity)	30
